Six compounds from ChEMBL document CHEMBL1201862, “PubChem BioAssay data set” (2004) can be followed below.

In assay [1] the target is T1, Tyrosine-protein phosphatase non-receptor type 7 (Homo sapiens, UniProt P35236).
T1 sequence (P35236 whole entry): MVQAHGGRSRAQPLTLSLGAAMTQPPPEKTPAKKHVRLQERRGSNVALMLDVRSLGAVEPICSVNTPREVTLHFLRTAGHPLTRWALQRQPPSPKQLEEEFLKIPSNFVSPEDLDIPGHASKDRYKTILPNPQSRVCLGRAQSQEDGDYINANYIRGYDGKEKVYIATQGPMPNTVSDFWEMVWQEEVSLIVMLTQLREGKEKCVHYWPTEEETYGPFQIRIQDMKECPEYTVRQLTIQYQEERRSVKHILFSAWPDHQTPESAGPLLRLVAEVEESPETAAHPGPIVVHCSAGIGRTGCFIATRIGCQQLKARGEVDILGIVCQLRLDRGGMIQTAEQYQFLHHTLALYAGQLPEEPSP
Briefly: redox-dependent HePTP inhibition, mechanism study, biochemical, fluorescence (AID 2068). The format is functional.

In assay [2] the target is T2, Dual specificity protein phosphatase 6 (Rattus norvegicus, UniProt Q64346).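 Further: confirmatory in vitro dose-response testing of MKP-3 inhibition; recombinant His-tagged MKP-3 made in E. coli BL21 with OMFP substrate.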
T2 sequence (Q64346 whole entry): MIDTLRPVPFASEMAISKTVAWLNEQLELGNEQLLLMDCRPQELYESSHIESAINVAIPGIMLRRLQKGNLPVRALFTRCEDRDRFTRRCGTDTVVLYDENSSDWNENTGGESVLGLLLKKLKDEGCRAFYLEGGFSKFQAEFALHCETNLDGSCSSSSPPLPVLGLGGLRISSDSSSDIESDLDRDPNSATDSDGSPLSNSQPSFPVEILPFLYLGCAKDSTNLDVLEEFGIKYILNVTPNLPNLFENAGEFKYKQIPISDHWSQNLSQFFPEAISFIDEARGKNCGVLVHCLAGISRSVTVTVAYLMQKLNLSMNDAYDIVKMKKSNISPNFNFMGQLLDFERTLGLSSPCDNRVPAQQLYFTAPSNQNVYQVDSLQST
The format is functional.

Assay [3] can be described thus: cytotoxicity in HEK-293T cells, dose response, cytotoxicity control for BCR NF-kB inhibitor project, luminescence, B-cell screen hits (AID 489021).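 Further: HEK-293T cells carrying an NF-kB luciferase reporter; cells exposed to compound for about 14 hours before viability readout.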 The format is functional, cell-based.
Assay [4] deals with HEK293. Briefly: cytotoxicity in HEK293T NF-kB-Luc cells, SAR follow-up, cytotoxicity control for NF-kB activator project, cell-based, resazurin fluorescence (AID 493251). The assay is classed as functional.
Another assay relates to Jurkat. Put plainly: SAR Analysis of small molecule inhibitors of T-cell specific antigen receptor-induced NF-kB activation in a Jurkat cell line using a luminescence assay - Set 2. [Related pubchem assays (depositor defined):AID435003, AID435012, AID465]. The settings on record: Homo sapiens. The assay is classed as functional, cell-based.
Assay [5] relates to HEK293. Briefly: SAR Analysis of small molecule inhibitors of T-cell specific antigen receptor-induced NF-kB activation in a HEK-293T cell line using a luminescence assay - Set 2. [Related pubchem assays (depositor defined):AID435003, AID435012, AID489026]. The assay is classed as functional, cell-based. Conditions: Homo sapiens.
The subject of assay [6] is Vero. Put plainly: cells. The format is functional, cell-based. The settings on record: Chlorocebus sabaeus.
For assay [7], the system named is Vero. Briefly: cells. The assay is classed as functional. Conditions: Chlorocebus sabaeus.
The nature of assay [8]: insulin promoter down-regulators in MIN6 cells, imaging, high-content screening, mouse beta cells (AID 1628). The format is functional.
Assay [9] has as its target Luciferin 4-monooxygenase (Photinus pyralis, UniProt P08659). Briefly: Counter Screen for Luciferase-based Assay Positives. [Related pubchem assays: 620, 618, 411 ]. (A counterscreen serves to expose hits that act by an unwanted route or on another target.)
The nature of assay [10]: Luminescence Cell-Based Dose Response HTS to Identify Inhibitors of 5'UTR Stem-Loop Driven Prion Protein mRNA Translation in H4 Neuroglioblastoma Cells. [Related pubchem assays: 1827 (Project Summary), 1813 (Primary HTS)]. The format is functional.
Assay [11] can be described thus: cytotoxicity in MIN6 insulinoma cells, dose response, cytotoxicity control, cell-based, mouse insulinoma (AID 2122).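 Further: confirmatory high-throughput counterscreen run to flag cytotoxic compounds; mouse MIN-6 beta cells carrying an insulin promoter eGFP reporter.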 The format is functional.
The nature of assay [12]: inhibitors of SNCA 5'UTR-driven reporter translation, confirmation, H4 neuroglioma cells, luminescence (AID 1988). The assay is classed as functional, cell-based.
Another assay relates to HT-1080. Briefly: cytotoxicity in HT1080 fibrosarcoma cells, cell-based, fluorescence readout (AID 620). The assay is classed as functional. The settings on record: Homo sapiens.
In a further assay the target is CAAX prenyl protease 2 (Homo sapiens, UniProt Q9Y256). Put plainly: human Rce1 protease inhibitors, dose response, biochemical, yeast membranes, quenched-peptide fluorescence, cherry-pick (AID 588849).
Chain of CAAX prenyl protease 2 (Q9Y256 whole entry): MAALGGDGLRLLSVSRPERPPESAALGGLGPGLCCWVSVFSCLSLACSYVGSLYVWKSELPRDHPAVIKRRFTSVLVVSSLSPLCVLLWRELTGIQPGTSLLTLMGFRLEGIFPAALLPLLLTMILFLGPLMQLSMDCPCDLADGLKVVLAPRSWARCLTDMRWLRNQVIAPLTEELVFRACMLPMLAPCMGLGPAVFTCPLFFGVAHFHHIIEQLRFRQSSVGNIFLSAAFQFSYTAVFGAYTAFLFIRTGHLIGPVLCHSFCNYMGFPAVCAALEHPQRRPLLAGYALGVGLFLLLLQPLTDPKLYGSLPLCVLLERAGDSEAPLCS
Assay [13] in a line: DNA binding of candidate compounds, dose response, artefact control for RAD54 inhibitor project, biochemical, fluorescence polarization, cherry-pick (AID 651673). The format is functional. A general note: In fluorescence polarisation assays a small probe gives low polarisation when free and higher when bound to something large.
Assay [14] addresses T3, DNA repair and recombination protein RAD54-like (Homo sapiens, UniProt Q92698).
T3 sequence (Q92698 whole entry): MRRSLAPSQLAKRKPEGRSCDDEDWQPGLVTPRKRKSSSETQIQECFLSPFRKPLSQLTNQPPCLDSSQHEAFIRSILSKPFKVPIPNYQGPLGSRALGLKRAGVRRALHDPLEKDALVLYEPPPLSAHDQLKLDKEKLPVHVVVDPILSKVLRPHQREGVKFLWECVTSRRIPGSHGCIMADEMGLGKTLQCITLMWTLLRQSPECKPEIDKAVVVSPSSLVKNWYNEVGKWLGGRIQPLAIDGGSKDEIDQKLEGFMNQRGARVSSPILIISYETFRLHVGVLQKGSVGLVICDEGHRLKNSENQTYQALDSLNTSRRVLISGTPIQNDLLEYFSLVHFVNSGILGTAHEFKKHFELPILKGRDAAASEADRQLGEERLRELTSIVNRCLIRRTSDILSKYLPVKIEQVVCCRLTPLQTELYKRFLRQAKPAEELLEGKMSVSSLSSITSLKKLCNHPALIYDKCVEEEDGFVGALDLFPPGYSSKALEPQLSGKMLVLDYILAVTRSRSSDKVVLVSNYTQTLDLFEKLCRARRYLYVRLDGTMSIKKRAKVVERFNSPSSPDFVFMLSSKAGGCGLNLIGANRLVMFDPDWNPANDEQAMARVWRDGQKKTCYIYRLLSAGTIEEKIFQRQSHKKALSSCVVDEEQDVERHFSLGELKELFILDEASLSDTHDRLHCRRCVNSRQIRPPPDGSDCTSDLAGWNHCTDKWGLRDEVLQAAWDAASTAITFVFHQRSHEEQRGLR
Put plainly: inhibitors of human RAD54 branch migration, confirmation, biochemical, fluorescence, cherry-picked samples, dose series (AID 651657). The format is functional.

Assay [15] concerns HEK293. Briefly: cells. Conditions: Homo sapiens.
For assay [16], the system named is HEK293. Briefly: cells. The settings on record: Homo sapiens. The source holds these as a separate data set.

Activity calls are given as the source filed them. Where only a bound is given, the exact number is not on record here.

Chain of Luciferin 4-monooxygenase (P08659 whole entry): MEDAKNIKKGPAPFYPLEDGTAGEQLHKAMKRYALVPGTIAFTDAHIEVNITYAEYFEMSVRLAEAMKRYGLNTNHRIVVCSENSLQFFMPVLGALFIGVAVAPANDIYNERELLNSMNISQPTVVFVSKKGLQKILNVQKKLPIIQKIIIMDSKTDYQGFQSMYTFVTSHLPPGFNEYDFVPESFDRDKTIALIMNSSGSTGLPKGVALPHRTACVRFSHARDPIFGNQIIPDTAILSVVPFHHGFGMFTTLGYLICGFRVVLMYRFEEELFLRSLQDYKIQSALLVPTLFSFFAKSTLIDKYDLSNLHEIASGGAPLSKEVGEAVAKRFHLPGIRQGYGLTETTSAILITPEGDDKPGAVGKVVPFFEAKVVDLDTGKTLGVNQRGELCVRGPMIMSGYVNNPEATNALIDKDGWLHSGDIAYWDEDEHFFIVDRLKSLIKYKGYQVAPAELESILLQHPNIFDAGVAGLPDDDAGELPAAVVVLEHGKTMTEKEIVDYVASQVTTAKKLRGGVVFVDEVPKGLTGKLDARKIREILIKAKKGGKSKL

The term IC50 denotes the concentration that gives 50% inhibition. Take `COc1cc(C(=S)NC2CCCC2)ccc1O`: the figures for the IC50 in assay [1] and in [2] were 2.58 µM (active) and > 100 µM (inactive), respectively.
On to `CCNC(=O)CCc1nc(-c2ccc(C(C)(C)C)cc2)no1`, for which the IC50 was > 80 µM (inactive) in [3]; 76.1 µM (inactive) with HEK293 [4] (Homo sapiens, HEK293); 79.3 µM (inactive) with HEK293 [4] (hek293); > 79 µM (inactive) in the assay on Jurkat; 34 µM (inactive) in the assay on HEK293 [5].
As to `CCCOc1ccc(C(=O)Nc2ccc(NC(=O)c3cc4ccccc4o3)cc2)cc1`, the IC50 is > 80 µM (inactive) in the assay with HEK293 [4] (Homo sapiens, HEK293); > 79 µM (inactive) in the assay with Jurkat; > 80 µM (inactive) in the assay on HEK293 [5].
For orientation: CC50 means the concentration giving 50% cytotoxicity. As for `O=c1c2ccccc2nc(/C=C/c2cc(Br)ccc2O)n1CCCO`, the IC50 in the assay on Vero [6] is > 25 µM (active). Further, in the assay with Vero [7], the CC50 is 22.8 µM (active).
On to `C/C(=N/OCO/N=C(/C)c1ccc(F)cc1)c1ccc(F)cc1`, for which the concentration for half-maximal inhibition (IC50) in the assay with Vero [6] was > 12.5 µM (active).
Usually EC50 stands for the concentration that produces a half-maximal response. What is called AC50 is the midpoint of the concentration-response curve, whichever way the signal moves. Turning to `Nc1cccc2nc3ccccc3cc12`, the IC50 in assay [8] is 3.72 µM (active); in assay [11], 4.9 µM (active). The EC50 in assay [9] is 0.95 µM (active); in assay [10], 7.26 µM (active); in [12], > 120 µM (not active); in the assay with HT-1080, 22.8 µM (active); with HEK293 [15] it was > 6.63 µM (active); with HEK293 [16], > 59.7 µM (inactive). The AC50 on CAAX prenyl protease 2 was 5.07 µM (active); in assay [13] it was 54 µM (active); in assay [14], 4.75 µM (active).
